Article PMC3549253, “Effect of repetitive lysine–tryptophan motifs on the bactericidal activity of antimicrobial peptides” (Amino Acids, 2012)
In brackets after ≈: the same amount, converted by molar mass. Where two headings read alike, the source gives them in different places. Residues, ends and D or L forms follow the SMILES beside them. No end group written: not given here.

Assays:
[1] = tested on: Escherichia coli (KCTC 1682); test: microbe, parasite or virus in culture; assay type: cell-based; conditions: pH 7.2
Source text: (§1) Escherichia coli (KCTC 1682), Salmonella typhimurium (KCTC 1926), Pseudomonas aeruginosa (KCTC 1637), Staphylococcus aureus (KCTC 1621), Bacillus subtilis (KCTC 1918), and Listeria monocytogenes (KCTC 3710) were obtained from the Korean Collection for Type Cultures (KCTC). Drug-resistant E. coli strains (CCARM 1229 and CCARM 1238), S. typhimurium strains (CCARM 8007, CCARM 8009, and CCARM 8013), and S. aureus strains (CCARM 3089, CCARM 3090, CCARM 3108, CCARM 3114, and CCARM 3126) were from the Culture Collection of Antibiotic-Resistant Microbes (CCARM) at Seoul Women’s University, Korea.
(§2) The antibacterial activities of the peptides against Gram-negative, Gram-positive and antibiotic-resistant bacterial strains were evaluated using the microbroth dilution method (Park et al. [2003]). Aliquots of culture medium containing bacterial suspensions in mid-logarithmic phase at a concentration of 2 × 10^5 colony forming units (CFU)/ml were added to each well of a multiwell plate containing peptide solution serially diluted 2× in 10 mM sodium phosphate buffer (pH 7.2) or phosphate-buffered saline (PBS, 1.5 mM KH2PO4, 2.7 mM KCl, 8.1 mM Na2HPO4, 150 mM NaCl, pH 7.2). Growth inhibition was evaluated by measuring the absorbance at 620 nm using a Versa-Max microplate Elisa Reader (Molecular Devices Co., Sunnyvale, CA, USA) after 24 h of incubation at 37° C. […] All MIC measurements were the average of 3–4 independent experiments.

[2] = tested on: Staphylococcus aureus (KCTC 1621); test: microbe, parasite or virus in culture; assay type: cell-based; conditions: pH 7.2
Source text: as §1, §2

[3] = tested on: Bacillus subtilis (KCTC 1918); assay type: cell-based; conditions: KCTC 1918, 24 h, pH 7.2
Source text: as §1, §2

[4] = tested on: Listeria monocytogenes (KCTC 3710); assay type: cell-based; conditions: KCTC 3710, 24 h, pH 7.2
Source text: as §1, §2

[5] = tested on: Pseudomonas aeruginosa (KCTC 1637); assay type: cell-based; conditions: KCTC 1637, 24 h, pH 7.2
Source text: as §1, §2

E. coli CCARM 1229 = test: microbe, parasite or virus in culture; assay type: cell-based, Escherichia coli
Source text: as §1, §2

E. coli CCARM 1238 = test: microbe, parasite or virus in culture; assay type: cell-based, Escherichia coli
Source text: as §1, §2

[6] = tested on: S. typhimurium CCARM 8007; test: microbe, parasite or virus in culture; assay type: cell-based, Salmonella typhimurium
Source text: as §1, §2

[7] = tested on: S. typhimurium CCARM 8009; test: microbe, parasite or virus in culture; assay type: cell-based, Salmonella typhimurium
Source text: as §1, §2

[8] = tested on: S. typhimurium CCARM 8013; test: microbe, parasite or virus in culture; assay type: cell-based, Salmonella typhimurium
Source text: as §1, §2

S. aureus CCARM 3089 = test: microbe, parasite or virus in culture; assay type: cell-based, Staphylococcus aureus
Source text: as §1, §2

S. aureus CCARM 3090 = test: microbe, parasite or virus in culture; assay type: cell-based, Staphylococcus aureus
Source text: as §1, §2

S. aureus CCARM 3108 = test: microbe, parasite or virus in culture; assay type: cell-based, Staphylococcus aureus
Source text: as §1, §2

S. aureus CCARM 3114 = test: microbe, parasite or virus in culture; assay type: cell-based, Staphylococcus aureus
Source text: as §1, §2

human red blood cells = test: Human red blood cell (hRBC) hemolysis; assay type: cell-based; conditions: for MHC (minimal hemolytic concentration): minimal peptide concentration that produces 10 % hemolysis, hRBCs in PBS; for Hemolysis: 200 μM peptide in PBS pH 7.2, 4 % v/v hRBCs, 60 min at 37° C, absorbance 414 nm, 100 % = 0.1 % Triton X-100, triplicate
Experimental: Hemolytic activities of the peptides were assessed using heparinized hRBCs collected from healthy donors. Fresh hRBCs were washed three times by centrifugation at 800×g for 10 min in PBS (pH 7.2) and then resuspended in PBS. The peptides were then dissolved in PBS and added to 100 μl of stock hRBCs suspended in PBS (final RBC concentration, 4 % v/v), after which the samples were incubated with gentle agitation for 60 min at 37° C before centrifugation for 10 min at 800×g. Absorbance of the supernatants was recorded at 414 nm. In addition, control samples for zero hemolysis and 100 % hemolysis were incubated with PBS (A blank) or 0.1 % Triton X-100 (A triton), respectively. Melittin was used as a reference hemolytic peptide. Percent hemolysis was calculated according to the following equation: Each measurement was conducted in triplicate (Kim et al. [2011]).

[9] = tested on: Salmonella typhimurium (KCTC 1926); test: microbe, parasite or virus in culture; assay type: cell-based; conditions: pH 7.2
Source text: as §1, §2

S. aureus CCARM 3126 = test: microbe, parasite or virus in culture
Source text: as §1
The antibacterial activities of the peptides against Gram-negative, Gram-positive and antibiotic-resistant bacterial strains were evaluated using the microbroth dilution method (Park et al. [2003]). Aliquots of culture medium containing bacterial suspensions in mid-logarithmic phase at a concentration of 2 × 10^5 colony forming units (CFU)/ml were added to each well of a multiwell plate containing peptide solution serially diluted 2× in 10 mM sodium phosphate buffer (pH 7.2) or phosphate-buffered saline (PBS, 1.5 mM KH2PO4, 2.7 mM KCl, 8.1 mM Na2HPO4, 150 mM NaCl, pH 7.2). Growth inhibition was evaluated by measuring the absorbance at 620 nm using a Versa-Max microplate Elisa Reader (Molecular Devices Co., Sunnyvale, CA, USA) after 24 h of incubation at 37° C.

[10] = drug-resistant strain, PBS, pH 7.2 (number in parentheses), 2 × 10^5 CFU/ml, 24 h at 37° C, average of 3–4 independent experiments
[11] = Salmonella enterica, drug-resistant strain, 10 mM sodium phosphate buffer, pH 7.2, 2 × 10^5 CFU/ml, 24 h at 37° C, average of 3–4 independent experiments, read-out: MIC
[12] = drug-resistant strain, 10 mM sodium phosphate buffer, pH 7.2, 2 × 10^5 CFU/ml, 24 h at 37° C, average of 3–4 independent experiments
[13] = drug-resistant strain, 10 mM sodium phosphate buffer, pH 7.2, 2 × 10^5 CFU/ml, 24 h at 37° C, average of 3–4 independent experiments, read-out: MIC

Molecule: NCCCC[C@H](NC(=O)[C@H](Cc1c[nH]c2ccccc12)NC(=O)[C@@H](N)CCCCN)C(=O)N[C@@H](Cc1c[nH]c2ccccc12)C(N)=O [(KW)2, KWKW-NH2] (H-KWKW-NH2)
- MIC ([1]; KCTC 1682, 24 h): >200 (>200) μM
- MIC ([2]; KCTC 1621, 24 h): >200 (>200) μM
- MIC [3]: >200 (>200) μM
- MIC [4]: 200 (>200) μM
- MIC [5]: >200 (>200) μM
- MIC (E. coli CCARM 1229; CCARM 1229, 24 h, pH 7.2): >200 (>200) μM
- MIC (E. coli CCARM 1238; CCARM 1238, 24 h, pH 7.2): >200 (>200) μM
- MIC ([6]; CCARM 8007, 24 h, pH 7.2): >200 (>200) μM
- MIC ([7]; CCARM 8009, 24 h, pH 7.2): >200 (>200) μM
- MIC ([8]; CCARM 8013, 24 h, pH 7.2): >200 (>200) μM
- MIC (S. aureus CCARM 3089; CCARM 3089, 24 h, pH 7.2): >200 (>200) μM
- MIC (S. aureus CCARM 3090; CCARM 3090, 24 h, pH 7.2): >200 (>200) μM
- MIC (S. aureus CCARM 3108; CCARM 3108, 24 h, pH 7.2): >200 (>200) μM
- MIC (S. aureus CCARM 3114; CCARM 3114, 24 h, pH 7.2): >200 (>200) μM
- MHC (minimal hemolytic concentration) (human red blood cells): 550 µM

Molecule: CC1(C)S[C@@H]2[C@H](NC(=O)[C@H](N)c3ccccc3)C(=O)N2[C@H]1C(=O)O [Ampicillin, reference compound]
- MIC ([1]; Escherichia coli, KCTC1682, 24 h): 50 µM (≈ 17.5 µg/mL)
- MIC ([9]; Salmonella enterica, 10 mM sodium phosphate buffer, 2 × 10^5 CFU/ml, 24 h at 37° C, average of 3–4 independent experiments, read-out: MIC): 25 µM (≈ 8.74 µg/mL)
- MIC (E. coli CCARM 1229; Escherichia coli, CCARM1229, drug-resistant strain, 10 mM sodium phosphate buffer, pH 7.2, 2 × 10^5 CFU/ml, 24 h at 37° C, average of 3–4 independent experiments, read-out: MIC): > 200 µM
- MIC (E. coli CCARM 1229; [10]): >200 (>200) μM
- MIC (E. coli CCARM 1238; Escherichia coli, CCARM1238, drug-resistant strain, 10 mM sodium phosphate buffer, pH 7.2, 2 × 10^5 CFU/ml, 24 h at 37° C, average of 3–4 independent experiments, read-out: MIC): > 200 µM
- MIC (E. coli CCARM 1238; [10]): >200 (>200) μM
- MIC [6, 11]: > 200 µM
- MIC [6, 10]: >200 (>200) μM
- MIC [7, 11]: > 200 µM
- MIC [7, 10]: >200 (>200) μM
- MIC [8, 11]: > 200 µM
- MIC [8, 10]: >200 (>200) μM

Molecule: Cc1onc(-c2ccccc2)c1C(=O)N[C@@H]1C(=O)N2[C@@H]1SC(C)(C)[C@@H]2C(=O)O [Oxacillin, reference compound]
- MIC ([2]; Staphylococcus aureus, KCTC1621, 10 mM sodium phosphate buffer, 2 × 10^5 CFU/ml, 24 h at 37° C, average of 3–4 independent experiments, read-out: MIC): 12.5 µM (≈ 5.02 µg/mL)
- MIC (S. aureus CCARM 3089; Staphylococcus aureus, CCARM3089, drug-resistant strain, 10 mM sodium phosphate buffer, pH 7.2, 2 × 10^5 CFU/ml, 24 h at 37° C, average of 3–4 independent experiments, read-out: MIC): > 200 µM
- MIC (S. aureus CCARM 3089; [10]): >200 (>200) μM
- MIC (S. aureus CCARM 3090; Staphylococcus aureus, CCARM3090, drug-resistant strain, 10 mM sodium phosphate buffer, pH 7.2, 2 × 10^5 CFU/ml, 24 h at 37° C, average of 3–4 independent experiments, read-out: MIC): > 200 µM
- MIC (S. aureus CCARM 3090; [10]): >200 (>200) μM
- MIC (S. aureus CCARM 3108; Staphylococcus aureus, CCARM3108, drug-resistant strain, 10 mM sodium phosphate buffer, pH 7.2, 2 × 10^5 CFU/ml, 24 h at 37° C, average of 3–4 independent experiments, read-out: MIC): > 200 µM
- MIC (S. aureus CCARM 3108; [10]): >200 (>200) μM
- MIC (S. aureus CCARM 3114; Staphylococcus aureus, CCARM3114, drug-resistant strain, 10 mM sodium phosphate buffer, pH 7.2, 2 × 10^5 CFU/ml, 24 h at 37° C, average of 3–4 independent experiments, read-out: MIC): > 200 µM
- MIC (S. aureus CCARM 3114; [10]): >200 (>200) μM
- MIC (S. aureus CCARM 3126; Staphylococcus aureus, CCARM3126, 24 h, pH 7.2): > 200 µM
- MIC (S. aureus CCARM 3126; [10]): >200 (>200) μM

Molecule: KWKWKW-NH2 [(KW)3, KWKWKW-NH2]
- MIC (S. aureus CCARM 3126; [12]): 50 µM
- MIC (S. aureus CCARM 3126; [10]): 200 µM
- MHC (minimal hemolytic concentration) (human red blood cells): 350 µM

Molecule: KWKWKWKW-NH2 [(KW)4, KWKWKWKW-NH2]
- MIC ([9]; KCTC 1926, 24 h): 1.56 (1.56) μM
- MIC [4]: 3.12 (3.12) μM
- MIC [5]: 3.12 (3.12) μM
- MIC (E. coli CCARM 1238; [12]): 12.5 (12.5) μM
- MIC (E. coli CCARM 1238; [10]): 12.5 (12.5) μM
- MIC [6, 12]: 12.5 (12.5) μM
- MIC [6, 10]: 12.5 (12.5) μM
- MIC (S. aureus CCARM 3089; [12]): 12.5 (12.5) μM
- MIC (S. aureus CCARM 3089; [10]): 12.5 (12.5) μM
- MIC (S. aureus CCARM 3090; [12]): 12.5 (12.5) μM
- MIC (S. aureus CCARM 3090; [10]): 12.5 (12.5) μM
- MIC (S. aureus CCARM 3108; [12]): 12.5 (12.5) μM
- MIC (S. aureus CCARM 3108; [10]): 12.5 (12.5) μM
- MIC (S. aureus CCARM 3114; [12]): 12.5 (12.5) μM
- MIC (S. aureus CCARM 3114; [10]): 12.5 (12.5) μM
- MIC (S. aureus CCARM 3126; [12]): 12.5 (12.5) μM
- MIC (S. aureus CCARM 3126; [10]): 12.5 (12.5) μM
- Hemolysis (human red blood cells): 8%
- MHC (minimal hemolytic concentration) (human red blood cells): 210 µM

Molecule: KWKWKWKWKW-NH2 [(KW)5, KWKWKWKWKW-NH2]
- MIC ([2]; KCTC 1621, 24 h, read-out: MIC): 25 µM
- MIC [3]: 12.5 (12.5) μM
- MIC [4]: 3.12 (3.12) μM
- MIC [6, 13]: 25 µM
- MIC [7, 13]: 25 µM
- MIC [8, 13]: 25 µM
- MIC (S. aureus CCARM 3090; [13]): 25 µM
- MIC (S. aureus CCARM 3114; [13]): 25 µM
- MIC (S. aureus CCARM 3126; [12]): 25 µM
- Hemolysis (human red blood cells): 71%
- MHC (minimal hemolytic concentration) (human red blood cells): 50 µM
